Where a SMILES comes first, the peptide text is derived from it.

Data on two compounds can be found in patent US11534475B2, “Carbohydrate-based peritoneal dialysis fluid comprising glutamine residue” (ZYTOPROTEC GmbH, priority 2007, dated 2022).

In assay [1] the test system is mesothelial cells. Put plainly: Longterm (24 hours) exposure model, PDF diluted 1:1 with medium: viability by LDH release. In kind it is cell-based. The settings on record: PDF diluted 1:1 with M199, L-alanyl-L-glutamine 0.5 and 10.0 g/L, compared to standard PDF. From the text:
(§1) The acute recovery experimental setting as described for glutamine as a proof of principle for the cytoprotective PDF, is best representative for the early toxic effects of PDF, mainly due to low pH and lactate as major culprits. Alternate models such as a longterm exposure model to unused PDF diluted 1:1 with normal culture medium are better accepted tools to assess effects of cellular processes that occur in the peritoneum upon more extended exposure to PDF, as occurs in clinical PD. […] Additional control cultures are kept in pure regular culture media at 37° C. for the same time. At the end of the study, cell viability and protein expression are assessed in parallel cultures to identify the cytoprotective PDF.
Background: Release of lactate dehydrogenase indicates damage to the cell membrane.

Assay [2] relates to HSP-72. Kind of assay: Longterm (24 hours) exposure model, PDF diluted 1:1 with medium: HSP-72 expression. In kind it is cell-based. The note with it: PDF diluted 1:1 with M199, L-alanyl-L-glutamine 0.5 and 10.0 g/L, compared to standard PDF.
From the text: as §1

The test system of assay [3] is HSP-72. Kind of assay: In-vitro model of PD: HSP-72 expression by Western blotting. In kind it is cell-based, human. On the procedure:
Immortalized human mesothelial cells […], ATCC CRL-9444) were cultured in M199/MCDB 105 medium (1:1) supplemented with 100 units/ml penicillin, 100 µg/ml streptomycin and 10% FCS. Cultures were kept in 75 cm^2 tissue culture flasks (Falcon, Becton Dickinson, Oxnard, Calif.) at 37° C. in 5% CO2 and passaged by regular trypsinization. Medium was changed every two to three days. Confluence was reached on average after 6 to 7 days. Confluent cultures were then exposed for 120 minutes to standard glucose-monomer and acidic lactate-based PDF (Fresenius 2, Bad Homburg, Germany), containing 1.5% anhydrous dextrose at pH 5.5, with or without addition of cytoprotective compound ([…] to 20 mM) and allowed to recover in regular growth medium for 16 hours. Control cultures were kept in regular culture media at 37° C. and underwent “sham media changes”, i.e.: exposure to PDF was paralleled by exposure to control medium. Western blotting: Protein content of mesothelial cell harvests was determined by Bradford assay (BioRad) and equal amounts of protein samples (5 μg/lane) were separated by standard SDS-PAGE using a Pharmacia Multiphore II unit. Size-fractionated proteins were transferred to PVDF membranes by semi-dry transfer in a Pharmacia Multiphore II Novablot unit. Membranes were blocked in 5% dry milk in TBS-Tween (10 mM Tris, 150 mM NaCl, 0.05% Tween 20, pH 8.0). Membranes were incubated with the HSP-72 antibody (SPA 810, Stressgen, B.C., Canada). Detection was accomplished by incubation with secondary, peroxidase-coupled antibodies (Sigma, USA) and enhanced chemiluminescence (ECL) using ECL Western blotting analysis system and protocols (Renaissance, NEN-Life Science Products, Boston, Mass., USA). Densitometry was performed with image analysis software (Molecular Analyst software, BioRad, USA). Differential expression of HSP-72 was derived from the ratio of specific signals in the linear range of the protein/signal intensity relationship, normalized to an internal standard, and compared between parallel experiments.
On the technique in general: Immunoblotting shows a protein as a band on a membrane.

Assay [4] has as its system Immortalized human mesothelial cells (Met5A, ATCC CRL-9444). Kind of assay: In-vitro model of PD: viability by LDH release. In kind it is cell-based. The settings on record: for LDH release: % of negative control, mean+/-S.D. On the procedure:
Immortalized human mesothelial cells (Met5A, ATCC CRL-9444) were cultured in M199/MCDB 105 medium (1:1) supplemented with 100 units/ml penicillin, 100 µg/ml streptomycin and 10% FCS. Cultures were kept in 75 cm^2 tissue culture flasks (Falcon, Becton Dickinson, Oxnard, Calif.) at 37° C. in 5% CO2 and passaged by regular trypsinization. Medium was changed every two to three days. Confluence was reached on average after 6 to 7 days.
Confluent cultures were then exposed for 120 minutes to standard glucose-monomer and acidic lactate-based PDF (Fresenius 2, Bad Homburg, Germany), containing 1.5% anhydrous dextrose at pH 5.5, with or without addition of cytoprotective compound (glutamine at 4 to 20 mM) and allowed to recover in regular growth medium for 16 hours. Control cultures were kept in regular culture media at 37° C. and underwent “sham media changes”, i.e.: exposure to PDF was paralleled by exposure to control medium.
Viability of cells was assessed by lactate dehydrogenase (LDH) analyses. Fifty μl aliquots of supernatants were removed after the described experimental setup and kept on 4° C. until analyzed within 48 hours. Measurements were performed in duplicates with Sigma TOX-7 LDH Kit according to the manufacturer instructions. LDH efflux was calculated as percentage of LDH values measured in each negative control experiment. Induction of HSP was assessed in parallel cultures as described below.

The subject of assay [5] is mesothelial cells. Kind of assay: In-vivo acute rat model of PD: mesothelial cell detachment. Set-up: species or system Sprague Dawley rats. The note with it: 4 hr dwell, intraperitoneal PDF with or without L-glutamine, mean+/-S.D.
Procedure: (§2) The studies were carried out on adult male inbred Sprague Dawley rats (average weight 310 g).
After introduction of anaesthesia (ketamine 100 mg/kg and 5 mg/kg xylazine, intramusculary) the animals were placed on a heated small animal operating table. A sterile catheter was inserted into the peritoneal cavity through a small abdominal midline incision and 35 ml of test fluid (PDF with or without addition of L-glutamine at 4-10 mM) were slowly infused in 45-60 secs. The animal was gently moved, a small volume of peritoneal fluid aspirated, the catheter withdrawn and the abdomen sutured. Animals awoke within 20 minutes after the procedure and had free access to food and tap water. At 4 hours after the intraperitoneal injection animals were again anaesthetized, another small volume of peritoneal fluid was aspirated and animals were sacrificed by cardial puncture and exsanguinations. Thereafter, the abdomen was opened by a midline incision and the complete intraperitoneal fluid gently collected. The volumes of the collected fluids were recorded, and total cell count and differential counts at the two time pints (0 and 4 hours) were assessed by hand count after giemsa staining and by machine count by a coulter counter. Total number of detached mesothelial cells was then computed for each rat. […]
Assay [6] concerns HSP-72. Put plainly: In-vivo acute rat model of PD: HSP-72 expression in harvested mesothelial cells. Also on record: species or system Sprague Dawley rats. The note with it: 4 hr dwell, L-glutamine supplemented PDF vs standard PDF. On the procedure: After introduction of anaesthesia (ketamine 100 mg/kg and 5 mg/kg xylazine, intramusculary) the animals were placed on a heated small animal operating table. A sterile catheter was inserted into the peritoneal cavity through a small abdominal midline incision and 35 ml of test fluid (PDF with or without addition of L-glutamine at 4-10 mM) were slowly infused in 45-60 secs. The animal was gently moved, a small volume of peritoneal fluid aspirated, the catheter withdrawn and the abdomen sutured. Animals awoke within 20 minutes after the procedure and had free access to food and tap water. At 4 hours after the intraperitoneal injection animals were again anaesthetized, another small volume of peritoneal fluid was aspirated and animals were sacrificed by cardial puncture and exsanguinations. Thereafter, the abdomen was opened by a midline incision and the complete intraperitoneal fluid gently collected. The volumes of the collected fluids were recorded, and total cell count and differential counts at the two time pints (0 and 4 hours) were assessed by hand count after giemsa staining and by machine count by a coulter counter. […]
Western blotting: Protein content of mesothelial cell harvests was determined by Bradford assay (BioRad) and equal amounts of protein samples (5 μg/lane) were separated by standard SDS-PAGE using a Pharmacia Multiphore II unit. […]

In assay [7] the test system is peritoneal membrane. Put plainly: In-vivo acute rat model of PD: barrier function of the peritoneal membrane. Set-up: species or system Sprague Dawley rats. The note with it: 4 hr dwell.
Procedure: as §2
After introduction of anaesthesia (ketamine 100 mg/kg and 5 mg/kg xylazine, intramusculary) the animals were placed on a heated small animal operating table. A sterile catheter was inserted into the peritoneal cavity through a small abdominal midline incision and 35 ml of test fluid (PDF with or without addition of L-glutamine at 4-10 mM) were slowly infused in 45-60 secs. The animal was gently moved, a small volume of peritoneal fluid aspirated, the catheter withdrawn and the abdomen sutured. Animals awoke within 20 minutes after the procedure and had free access to food and tap water. At 4 hours after the intraperitoneal injection animals were again anaesthetized, another small volume of peritoneal fluid was aspirated and animals were sacrificed by cardial puncture and exsanguinations. Thereafter, the abdomen was opened by a midline incision and the complete intraperitoneal fluid gently collected. The volumes of the collected fluids were recorded, and total cell count and differential counts at the two time pints (0 and 4 hours) were assessed by hand count after giemsa staining and by machine count by a coulter counter. Total number of detached mesothelial cells was then computed for each rat.
For testing the barrier function of the peritoneal membrane, creatinine, glucose and total protein were measured in dialysate (D) samples and creatinine in plasma (P) at the end of the protocol. D/P ratios for creatinine and D/D0 ratios for glucose were computed. Peritoneal loss of protein was calculated as final dialysate concentration×final volume.

As to `C[C@H](N)C(=O)N[C@@H](CCC(N)=O)C(=O)O` [L-alanyl-L-glutamine] (H-Ala-Gln-OH), in assay [1], the “Viability assessed by LDH release” value is recorded as “preserved viability”. In addition, the HSP-72 expression result in assay [2] is “increased”.

As for `NC(=O)CC[C@H](N)C(=O)O` [L-glutamine], the HSP-72 expression is reported as 234+/−221% in assay [3] (control conditions (no PDF), relative to control, mean+/-S.D.); “increased” in assay [3] (control conditions, L-glutamine 8 and 10 mM); 1895+/−1928% in assay [3] (during exposure to PDF for 120 min, relative to control, mean+/-S.D.). Besides, the LDH release in assay [4] (control conditions (no PDF)) is on record as 91+/−7%; in assay [4] (during exposure to PDF for 120 min, 16 hours recovery) it was 190+/−19%. Besides, the “Viability (LDH release)” value in assay [4] (control conditions, L-glutamine up to 20 mM) is listed as “unchanged viability”. In addition, the Mesothelial cell detachment in assay [5] was 38+/−38 cells. Moreover, in assay [6], the “HSP-72 expression in rat mesothelial cells” value was “overexpression of HSP-72”. In addition, the D/Do glucose in assay [7] is recorded as 0.469+/−0.04. Besides, the D/P creatinine in assay [7] was 0.375+/−0.11. Also, in assay [7], the Net ultrafiltration was found to be 5.4 ± 2.7 mL. Also, in assay [7] (final dialysate concentration x final volume), the “Protein loss into the dialysate effluate” value turned out to be 65 ± 4 mg.
